According to patent publication US8846951B2 (AbbVie Inc., priority 2009, dated 2014):
“Also recorded” adds a separate entry of the source.

Assays:
[1] = system: MK-801-induced deficits in inhibitory avoidance; experiment: 24-hour inhibitory avoidance in mouse (MK-801-induced deficit); assay type: in vivo; conditions: CD1 mice; i.p.; high dose of 10 mg/kg; compared to Veh-MK-801 (0.1 mg/kg)
Source text: (viii) Inhibitory Avoidance in Mouse
Specifically in the hippocampus CA1 area, N-methyl-D-aspartic acid (NMDA) receptors are known to regulate synaptic plasticity, long term-potentiation (LTP), and learning and memory processes, including short- and long-term memories. […] The inhibitory avoidance task involves the uses of a two-compartment step through apparatus (Ugo Basile, Collegeville, Pa.) that measures the animal's ability to remember a brief noxious stimulus (foot shock), and is considered a measure of trial learning, and memory. (Bitner, R. S., et al. J. Neurosci. 2007, 27(39), 10578-10587). The purpose of this experiment was to test the ability of a 5HTc agonist to attenuate MK-801-induced deficits in the 24-hour inhibitory avoidance test. Effects against MK-801-induced cognitive impairment may indicate a potential efficacy in treating cognitive deficits of schizophrenia.
Following a 2 hour habituation period, CD1 mice first received i.p. treatment with the test compound at 0, 1, 3, 10 mg/kg. 20 minutes later mice then received either MK-801 at 0.1 mg/kg (dissolved in 0.3% tartaric acid) or vehicle (Veh, water). […] The latency to enter the adjoining dark chamber was recorded, and an inescapable foot shock (0.3 mA, 1 second duration) was presented to the mouse. […] The latency to enter the dark chamber was recorded and was the dependent variable measured for assessing memory retention.

SHR pups = experiment: 5-trial inhibitory avoidance/impulsivity model in pups of spontaneously hypertensive rat; assay type: in vivo; conditions: sc 1, 3 and 10 mg/kg, acute, compared to vehicle
Source text: (ix) 5-Trial Inhibitory Avoidance/Impulsivity Model in the Pups of Spontaneously Hypertensive Rat
However, the adult rats have spontaneous hypertension which may confound behavioral assessment. The juvenile SHRs were used in the current study since these pups show similar behavioral deficits while having not developed hypertension. The aim was to investigate the efficacy of 5-HT2c agonists in SHR pups in an inhibitory avoidance model, as indication of enhancement of inhibitory control/or anti-impulsivity.
SHR pups at postnatal day 21-28 were sc dosed with either vehicle or Example 115 (1, 3, and 10 mg/kg; dissolved in tartaric acid/PH4-6) 30 minutes prior to the test. Upon testing initiation, pups were placed into the light side of a computer controlling 2-chambered compartment. The latency to enter the adjoining dark chamber was recorded, and an inescapable footshock (0.1 mA, 1 second duration) was presented to the pup. The pup was removed, placed back into the home cage for approximately 1 minute, and the process repeated for a total of 5 trials. The dependent variable used for data analysis was the total transfer latency of trial 2 to trial 5.

[2] = system: conditioned avoidance response (CAR) behavior; experiment: Conditioned avoidance responding in rats; assay type: in vivo, rat; conditions: male Wistar rats
Experimental: The fact that antipsychotics have the unique ability to selectively suppress CAR behavior, made the CAR test a useful tool for the screening of new, potentially antipsychotic compounds. […] Animals Male Wistar rats (9-11 weeks old, Charles River, Germany) were pair-housed and allowed ad-libitum access to food and water. A 12-hour light/dark cycle was imposed with lights-on period between 0530 and 1730 hours. All testing occurred between 700 and 1300 hours. All procedures were approved by Abbott Institutional Animal Care and Use Committee (USA) or Animal Welfare Officer (Germany) and were conducted in accordance with the National Institutes of Health Guide for Care and Use of Laboratory Animals guidelines and applicable national laws in the facilities accredited by the Association for the Assessment and Accreditation of Laboratory Animal Care. Methods Wistar rats are exposed to a conditioned stimulus CS (a 2.9-kHz tone of 10 second duration), which is a signal for the animal that it must move into the other chamber in order to avoid an immediately ensuing footshock US (0.5 mA, 10 second, tone continues during shock presentation). Once the shock has begun, the animal can still escape it by moving to the other chamber. Each session is limited to a maximum of 40 trials (intertrial interval 10-90 seconds). The animals generally learn quickly to change chambers upon the conditioned stimulus and thus avoid further shocks. Scored are: • Avoided responses=crossings into other compartment within 10 seconds of tone presentation; • Escaped responses=crossings between 10-20 seconds of tone presentation; • Failures=crossings after cessation of tone-shock presentation or no crossing. […] At the test sessions (=CS-shock pairings), animals are pre-treated with a test drug or vehicle 30 minutes before commencement of the session.

CN1C[C@@H]2CNC(=O)c3cc(-c4ccc(F)cc4)ccc3[C@H]2C1 [Example 115, (3aS,10bS)-8-(4-Fluorophenyl)-2-methyl-1,2,3,3a,4,5-hexahydrobenzo[e]pyrrolo[3,4-c]azepin-6(10bH)-one]
transfer latency, 24-hour inhibitory avoidance [1]: significantly increased transfer latencies; also recorded: dose-dependent improvement in mouse 24-hour inhibitory avoidance scores | total transfer latency of trial 2 to trial 5 (SHR pups): dose-dependent increase in transfer latencies; also recorded: dose-dependent improvement in 5-trial inhibitory avoidance scores | conditioned avoidance behavior (avoided responses) ([2]; acute, 30 minutes before session): significantly suppressed conditioned avoidance behavior | number of failures ([2]; indicator of sedation or extrapyramidal side effects): without affecting the number of failures
